Patent US20010053796A1, “Delta-aminolevulinic acid for prevention and treatment of infection microorganisms and parasite” (priority 2000, published 2001)

How the values were obtained:
Streptococcus sp. [1] = assay: Prevention effect for artificial infection (abdominal injection of bacteria); assay type: in vivo, Sebastes schlegeli; conditions: for Mortality during Cultivation: dead of 20 fish
Method: The water temperature was maintained at 20° C. (±2° C. ) throughout the experiment. […]
Bastardhalibut and Sebastes schlegeli were infected by Streptococcus sp. by abdominal injection with the same method of fish breeding, δ-aminolevulinic acid treatment and artificial infection carried out in Experiment 1 and 2. Each experimental fish was moved to fish tanks for monitoring and monitored for mortality according to infection for 2 weeks. […] The treated group, with δ-aminolevulinic acid by tank administration method and oral administration method, has shown viability of higher than 65%.

Pseudomonas sp. [2] = assay: as above; assay type: in vivo, Sebastes schlegeli; conditions: for Mortality during Cultivation: dead of 20 fish
Method: (§1) The water temperature was maintained at 20° C. (±2° C. ) throughout the experiment.
(§2) As the same method of above Experiment 1, fishes of both control group and experiment group were prepared and artificially infected by direct abdominal injection of Edwardsiella tarda 10^5 CFU per 1 fish. Each experimental fish was moved to fish tanks for monitoring and monitored for mortality according to infection for 2 weeks and viability after 2 weeks.
Bastardhalibut and Sebastes schlegeli were infected by Pseudomonas sp. through abdominal injection with the same method of fish breeding; δ-aminolevulinic acid treatment and artificial infection carried out in Experiment 1 and 2. Each experimental fish was moved to fish tanks for monitoring and monitored for mortality according to infection for 2 weeks.

Vibrio anguillarum [3] = assay: as above; assay type: in vivo, Sebastes schlegeli; conditions: for Mortality during Cultivation: dead of 20 fish
Method: as §1, §2
Bastardhalibut and Sebastes schlegeli were infected by Vibrio anguillarum through abdominal injection with the same method of fish breeding; δ-aminolevulinic acid treatment and artificial infection carried out in Experiment 1 and 2.

Edwardsiella tarda = assay: Treatment effect of infected fry by oral administration in feed; assay type: in vivo, Sebastes schlegeli; conditions: 50 fish, Bastardhalibut
Method: (§3) In this example, fry of Bastardhalibut and Sebastes schlegeli (mean body weight 2 g), 50 per each breeding tank, were preliminary-bred for 1 week and stabilized. […] The artificial infection methods were carried out through the digestion method. Pathogenic organisms were applied into fish tanks and introduced into seawater for an hour, wherein the concentration of organisms adjusted to 10^4 CFU/mL. Treatment conditions are as follows; after artificial infection, infected fish were moved to fish tanks and kept in the infection period for 3 days. On the fourth day of infection, 0.1˜50 ppm of δ-aminolevulinic acid for feed were added. The fish were bred for 2 weeks after exchanging with clean seawater and the mortality of fish according to infection was monitored. In the control groups, after each bacteria were identically infected through digestion method, mortality of Bastardhalibut and Sebastes schlegeli according to bacteria infection was identified while breeding with marketing assorted feed without δ-aminolevulinic acid. As a result of this experiment, δ-aminolevulinic acid-treated groups have shown high viability in both Bastardhalibut (Table 20˜Table 23) and Sebastes schlegeli (Table 24˜Table 27).

Pseudomonas sp. [4] = assay: as above; assay type: in vivo, Sebastes schlegeli; conditions: 50 fish, Bastardhalibut
Method: as §3

Staphylococcus epidermis = assay: as above; assay type: in vivo, Sebastes schlegeli; conditions: 50 fish, Bastardhalibut
Method: as §3

Staphylococcus sp. = assay: as above; assay type: in vivo, Sebastes schlegeli; conditions: 50 fish, Bastardhalibut
Method: as §3

Streptococcus sp. [5] = assay: as above; assay type: in vivo, Sebastes schlegeli; conditions: 50 fish, Bastardhalibut
Method: as §3

Vibrio anguillarum [6] = assay: as above; assay type: in vivo, Sebastes schlegeli; conditions: 50 fish, Bastardhalibut
Method: as §3

Sebastes schlegeli = assay: Breeding before Scutica artificial infection (mortality during cultivation); assay type: in vivo; conditions: 1˜3 weeks; for Mortality during Cultivation: dead of 20 fish
Method: The water temperature was maintained at 20° C. (±2° C.) throughout the experiment.

[7] = test system: RTG-2 (Rainbow Trout Gonad); conditions: 24 h
Method: δ-aminolevulinic acid feed were prepared to 1.0 M concentration (0. 167 g/mL HBSS) and diluted by 10-fold dilution method. 100 μl of each fish cell line suspension of 2.5×10^5 were placed into 96-well microplate and then, 100 μl of each of the resulting diluted solution, 4 well/dilution unit, were added respectively. Fish cell lines, which were used for this cell toxicity experiment of δ-aminolevulinic acid, were RTG-2 (Rainbow Trout Gonad), FHM (Fathead Minnow Epithelioma) and CHSE (Chinook Salmon Embryo) lotted out from Dr. M. Yoshimizu of the Department of Fisheries, Hokkaido University, Japan. For these experimental cells, 100 U/mL penicillin (Sigma), 100 μl/mL streptomycin (Sigma) and MEM media supplemented with 5% fetal bovine serum (FBS, Gibco) for cell culture were used. Cultured cells in 96-well microplate was incubated for 3 hrs at 15° C. and δ-aminolevulinic acid were added to wells at amounts of 100 μl of 0, 1.0, 10, 50 and 100 mM and incubated for 24 hrs at 18° C. As a control group, instead of δ-aminolevulinic acid, HBSS was added at the same amount. […] Absorbance was measured with an ELISA reader at 570 μl.

Bastardhalibut = assay: Breeding before Scutica artificial infection (mortality during cultivation); conditions: oral (100 ppm per feed 1 kg), 1˜3 weeks
Text: 20 flatfish of about 25 g were set into 2 groups and 1 control group and cultivated in circulatory filtering system. In group 1, they were cultivated for 1˜3 weeks, maintaining the concentration of δ-aminolevulinic acid at 0.01˜50 ppm by administering δ-aminolevulinic acid once every 3 days to the cultivating water. In group 2, they were cultivated for 1˜3 weeks by administering δ-aminolevulinic acid solution, which was nebulized at the concentration of 0.1˜100 ppm and for artificial assorted feed (EP, fish body weight 3%: 15 g) 1 kg, and dried. In group 1 and the non-treated group, artificial assorted feed on the market with the same amount of feed of group 2 was used without δ-aminolevulinic acid treatment. […] The water temperature was maintained at 20° C. (±2° C.) throughout the experiment.

[8] = orally, 1.0 ppm in feed, Sebastes schlegeli
[9] = orally, 10 ppm in feed, Sebastes schlegeli
[10] = orally, 100 ppm in feed, Sebastes schlegeli
[11] = to fish tanks, 0.01 ppm, Sebastes schlegeli
[12] = to fish tanks, 0.1 ppm, Sebastes schlegeli
[13] = to fish tanks, 1.0 ppm, Sebastes schlegeli
[14] = feed 0.1 ppm from 4th day of infection
[15] = feed 1.0 ppm from 4th day of infection
[16] = feed 10 ppm from 4th day of infection
[17] = feed 50 ppm from 4th day of infection

How did the Viability (Streptococcus sp. [1]; orally, 0.1 ppm in feed) turn out when `NCC(=O)CCC(=O)O` [δ-aminolevulinic acid] was run?
Its Viability is 70%.

What about the “Mortality during Cultivation” value (Streptococcus sp. [1]; orally, 0.1 ppm in feed) of the same compound?
Its value is 6.

And the Viability (Streptococcus sp. [1]; orally, 1.0 ppm in feed)?
Its Viability is 70%.

And the “Mortality during Cultivation” value (Streptococcus sp. [1]; orally, 1.0 ppm in feed)?
Its value is 6.

And the Viability (Streptococcus sp. [1]; orally, 10 ppm in feed)?
Its Viability is 85%.

And the “Mortality during Cultivation” value (Streptococcus sp. [1]; orally, 10 ppm in feed)?
Its value is 3.

And the Viability (Streptococcus sp. [1]; orally, 100 ppm in feed)?
The Viability was 90%.

And the “Mortality during Cultivation” value (Streptococcus sp. [1]; orally, 100 ppm in feed)?
The value was 2.

And the Viability (Streptococcus sp. [1]; to fish tanks, 0.01 ppm)?
Its Viability is 60%.

And the “Mortality during Cultivation” value (Streptococcus sp. [1]; to fish tanks, 0.01 ppm)?
The value was 8.

And the Viability (Streptococcus sp. [1]; to fish tanks, 0.1 ppm)?
Its Viability is 65%.

What about the “Mortality during Cultivation” value (Streptococcus sp. [1]; to fish tanks, 0.1 ppm) of the same compound?
The value was 7.

What about the Viability (Streptococcus sp. [1]; to fish tanks, 1.0 ppm) of the same compound?
The Viability was 85%.

What about the “Mortality during Cultivation” value (Streptococcus sp. [1]; to fish tanks, 1.0 ppm) of the same compound?
Its value is 3.

And the Viability (Streptococcus sp. [1]; to fish tanks, 10 ppm)?
The Viability was 80%.

What about the “Mortality during Cultivation” value (Streptococcus sp. [1]; to fish tanks, 10 ppm) of the same compound?
The value was 4.

And the Viability (Pseudomonas sp. [2]; orally, 0.1 ppm in feed)?
Its Viability is 60%.

What about the “Mortality during Cultivation” value (Pseudomonas sp. [2]; orally, 0.1 ppm in feed) of the same compound?
The value was 8.

What about the Viability (Pseudomonas sp. [2]; [8]) of the same compound?
The Viability was 60%.

And the “Mortality during Cultivation” value (Pseudomonas sp. [2]; [8])?
Its value is 8.

What about the Viability (Pseudomonas sp. [2]; [9]) of the same compound?
The Viability was 85%.

And the “Mortality during Cultivation” value (Pseudomonas sp. [2]; [9])?
Its value is 3.

And the Viability (Pseudomonas sp. [2]; [10])?
Its Viability is 85%.

What about the “Mortality during Cultivation” value (Pseudomonas sp. [2]; [10]) of the same compound?
Its value is 3.

And the Viability (Pseudomonas sp. [2]; [11])?
The Viability was 55%.

And the “Mortality during Cultivation” value (Pseudomonas sp. [2]; [11])?
The value was 9.

And the Viability (Pseudomonas sp. [2]; [12])?
The Viability was 55%.

What about the “Mortality during Cultivation” value (Pseudomonas sp. [2]; [12]) of the same compound?
The value was 9.

What about the Viability (Pseudomonas sp. [2]; [13]) of the same compound?
Its Viability is 85%.

And the “Mortality during Cultivation” value (Pseudomonas sp. [2]; [13])?
The value was 3.

What about the Viability (Pseudomonas sp. [2]; to fish tanks, 10 ppm) of the same compound?
The Viability was 90%.

What about the “Mortality during Cultivation” value (Pseudomonas sp. [2]; to fish tanks, 10 ppm) of the same compound?
The value was 2.

And the Viability (Vibrio anguillarum [3]; orally, 0.1 ppm in feed)?
The Viability was 60%.

What about the “Mortality during Cultivation” value (Vibrio anguillarum [3]; orally, 0.1 ppm in feed) of the same compound?
Its value is 8.

What about the Viability (Vibrio anguillarum [3]; orally, 1.0 ppm in feed) of the same compound?
Its Viability is 65%.

And the “Mortality during Cultivation” value (Vibrio anguillarum [3]; orally, 1.0 ppm in feed)?
Its value is 7.

What about the Viability (Vibrio anguillarum [3]; orally, 10 ppm in feed) of the same compound?
The Viability was 80%.

And the “Mortality during Cultivation” value (Vibrio anguillarum [3]; orally, 10 ppm in feed)?
Its value is 4.

What about the Viability (Vibrio anguillarum [3]; orally, 100 ppm in feed) of the same compound?
The Viability was 90%.

What about the “Mortality during Cultivation” value (Vibrio anguillarum [3]; orally, 100 ppm in feed) of the same compound?
The value was 2.

And the Viability (Vibrio anguillarum [3]; to fish tanks, 0.01 ppm)?
The Viability was 60%.

What about the “Mortality during Cultivation” value (Vibrio anguillarum [3]; to fish tanks, 0.01 ppm) of the same compound?
Its value is 8.

And the Viability (Vibrio anguillarum [3]; to fish tanks, 0.1 ppm)?
Its Viability is 60%.

And the “Mortality during Cultivation” value (Vibrio anguillarum [3]; to fish tanks, 0.1 ppm)?
Its value is 8.

And the Viability (Vibrio anguillarum [3]; to fish tanks, 1.0 ppm)?
The Viability was 85%.

And the “Mortality during Cultivation” value (Vibrio anguillarum [3]; to fish tanks, 1.0 ppm)?
Its value is 1.

And the Viability (Vibrio anguillarum [3]; to fish tanks, 10 ppm)?
Its Viability is 90%.

And the “Mortality during Cultivation” value (Vibrio anguillarum [3]; to fish tanks, 10 ppm)?
The value was 2.

And the Viability (Edwardsiella tarda; [14])?
The Viability was 52%.

What about the Viability (Edwardsiella tarda; [15]) of the same compound?
The Viability was 62%.

What about the Viability (Edwardsiella tarda; [16]) of the same compound?
Its Viability is 68%.

What about the Viability (Edwardsiella tarda; [17]) of the same compound?
Its Viability is 88%.

What about the Viability (Pseudomonas sp. [4]; [14]) of the same compound?
The Viability was 52%.

And the Viability (Pseudomonas sp. [4]; [15])?
Its Viability is 78%.

What about the Viability (Pseudomonas sp. [4]; [16]) of the same compound?
Its Viability is 86%.

What about the Viability (Pseudomonas sp. [4]; [17]) of the same compound?
Its Viability is 84%.

And the Viability (Staphylococcus epidermis; [14])?
Its Viability is 36%.

And the Viability (Staphylococcus epidermis; [15])?
Its Viability is 63%.

And the Viability (Staphylococcus epidermis; [16])?
The Viability was 64%.

What about the Viability (Staphylococcus epidermis; [17]) of the same compound?
The Viability was 86%.

And the Viability (Staphylococcus sp.; [14])?
Its Viability is 48%.

What about the Viability (Staphylococcus sp.; [15]) of the same compound?
Its Viability is 70%.

And the Viability (Staphylococcus sp.; [16])?
Its Viability is 78%.

What about the Viability (Staphylococcus sp.; [17]) of the same compound?
The Viability was 88%.

And the Viability (Streptococcus sp. [5]; [14])?
Its Viability is 44%.

And the Viability (Streptococcus sp. [5]; [15])?
The Viability was 66%.

What about the Viability (Streptococcus sp. [5]; [16]) of the same compound?
The Viability was 72%.

What about the Viability (Streptococcus sp. [5]; [17]) of the same compound?
The Viability was 82%.

What about the Viability (Vibrio anguillarum [6]; [14]) of the same compound?
Its Viability is 50%.

And the Viability (Vibrio anguillarum [6]; [15])?
The Viability was 74%.

And the Viability (Vibrio anguillarum [6]; [16])?
Its Viability is 84%.

And the Viability (Vibrio anguillarum [6]; [17])?
Its Viability is 86%.

What about the Viability (Sebastes schlegeli; oral (100 ppm per feed 1 kg)) of the same compound?
Its Viability is 100%.

What about the “Mortality during Cultivation” value (Sebastes schlegeli; oral (100 ppm per feed 1 kg)) of the same compound?
Its value is 0.

What about the Viability (Sebastes schlegeli; to fish tanks (10 ppm)) of the same compound?
Its Viability is 100%.

And the “Mortality during Cultivation” value (Sebastes schlegeli; to fish tanks (10 ppm))?
The value was 0.

And the “safe range of toxicity” value [7]?
Its value is “below 10 mM”.

And the Viability (Bastardhalibut)?
The Viability was 100%.

And the “Mortality during Cultivation” value (Bastardhalibut; dead of 20 fish)?
The value was 0.
